Key:
[1] = target: T1, Estrogen-related receptor gamma (Homo sapiens, UniProt P62508)
T1 sequence (P62508 whole entry): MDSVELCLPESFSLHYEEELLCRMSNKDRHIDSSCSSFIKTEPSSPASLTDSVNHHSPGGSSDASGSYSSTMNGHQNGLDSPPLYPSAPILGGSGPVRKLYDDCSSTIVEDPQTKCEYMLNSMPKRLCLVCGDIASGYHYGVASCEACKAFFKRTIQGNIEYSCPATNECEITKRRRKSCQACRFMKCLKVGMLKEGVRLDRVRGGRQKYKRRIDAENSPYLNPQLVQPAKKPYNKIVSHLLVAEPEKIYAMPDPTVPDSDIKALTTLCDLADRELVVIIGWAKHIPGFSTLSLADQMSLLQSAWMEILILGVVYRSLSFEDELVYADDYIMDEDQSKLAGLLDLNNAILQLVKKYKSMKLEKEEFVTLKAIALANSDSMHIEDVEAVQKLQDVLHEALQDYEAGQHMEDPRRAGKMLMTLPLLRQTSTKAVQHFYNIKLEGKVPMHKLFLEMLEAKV

[2] = target: T2, Steroid hormone receptor ERR1 (Homo sapiens, UniProt P11474)
T2 sequence (P11474 whole entry): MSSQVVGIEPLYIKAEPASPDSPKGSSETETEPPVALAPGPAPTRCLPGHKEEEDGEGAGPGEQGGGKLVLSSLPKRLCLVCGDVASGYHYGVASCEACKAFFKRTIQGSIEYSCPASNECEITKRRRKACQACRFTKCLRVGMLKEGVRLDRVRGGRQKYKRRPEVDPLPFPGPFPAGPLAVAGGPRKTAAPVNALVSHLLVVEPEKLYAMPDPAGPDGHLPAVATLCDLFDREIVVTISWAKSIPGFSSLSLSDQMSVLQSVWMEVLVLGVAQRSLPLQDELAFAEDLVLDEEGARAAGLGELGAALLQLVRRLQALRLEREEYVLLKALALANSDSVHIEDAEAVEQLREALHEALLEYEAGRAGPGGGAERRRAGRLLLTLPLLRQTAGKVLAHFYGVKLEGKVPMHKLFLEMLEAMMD

[3] = target: T3, Steroid hormone receptor ERR2 (Homo sapiens, UniProt O95718); assay: Binding affinity to ERRbeta (unknown origin) using fluorescein-conjugated coactivator PGC-1alpha incubated for 1 hr by TR-FRET assay
T3 sequence (O95718 whole entry): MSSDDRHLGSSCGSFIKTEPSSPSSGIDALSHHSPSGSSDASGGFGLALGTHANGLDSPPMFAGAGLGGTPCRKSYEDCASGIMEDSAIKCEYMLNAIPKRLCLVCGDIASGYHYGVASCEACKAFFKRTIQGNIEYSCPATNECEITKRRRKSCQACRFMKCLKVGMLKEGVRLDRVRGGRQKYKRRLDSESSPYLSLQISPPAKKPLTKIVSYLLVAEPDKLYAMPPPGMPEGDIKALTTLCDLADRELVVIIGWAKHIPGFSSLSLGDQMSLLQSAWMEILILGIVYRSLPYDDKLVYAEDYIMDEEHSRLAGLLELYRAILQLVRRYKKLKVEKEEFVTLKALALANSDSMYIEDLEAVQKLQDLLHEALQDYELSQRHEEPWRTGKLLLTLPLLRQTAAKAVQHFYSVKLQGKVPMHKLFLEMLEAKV

Estrogen receptor = target: T4, Estrogen receptor (Homo sapiens, UniProt P03372)
T4 sequence (P03372 whole entry): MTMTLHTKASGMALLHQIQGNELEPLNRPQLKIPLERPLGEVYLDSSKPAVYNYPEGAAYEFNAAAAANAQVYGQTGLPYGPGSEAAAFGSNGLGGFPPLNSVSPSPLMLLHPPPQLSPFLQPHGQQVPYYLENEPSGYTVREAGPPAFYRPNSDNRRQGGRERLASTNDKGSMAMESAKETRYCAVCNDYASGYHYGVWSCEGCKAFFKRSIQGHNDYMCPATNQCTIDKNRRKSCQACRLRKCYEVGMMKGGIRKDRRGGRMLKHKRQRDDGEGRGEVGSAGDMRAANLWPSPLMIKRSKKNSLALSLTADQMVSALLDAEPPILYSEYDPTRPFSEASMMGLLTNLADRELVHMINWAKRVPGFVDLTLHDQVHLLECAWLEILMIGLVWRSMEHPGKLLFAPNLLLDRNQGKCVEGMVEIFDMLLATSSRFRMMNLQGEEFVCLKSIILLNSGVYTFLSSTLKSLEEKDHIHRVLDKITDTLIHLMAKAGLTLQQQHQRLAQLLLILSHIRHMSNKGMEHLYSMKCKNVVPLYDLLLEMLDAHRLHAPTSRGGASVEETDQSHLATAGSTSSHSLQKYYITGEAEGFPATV

[4] = Metabolic stability in dog liver microsomes assessed as compound remaining at 1 uM after 30 mins in presence of NADPH regeneration system by LC-MS/MS analysis; format: ADME, Canis lupus familiaris, Microsome; conditions: read-out: Stability
[5] = Metabolic stability in human liver microsomes assessed as compound remaining at 1 uM after 30 mins in presence of NADPH regeneration system by LC-MS/MS analysis; format: ADME, Microsome; conditions: read-out: Stability
[6] = Effective permeability of the compound at 10 uM after 5 hrs by PAMPA; format: ADME; conditions: read-out: Peff
CYP1A2 = target: T5, CYP1A2 (Homo sapiens, UniProt P05177); assay: Inhibition of CYP1A2 in human liver microsomes assessed as reduction in phenacetin O-deethylase activity at 10 uM preincubated for 5 mins followed by NADPH addition and measured after 15 mins by LC-MS/MS analysis relative to control; format: ADME; conditions: probe phenacetin (O-deethylation)
T5 sequence (P05177 whole entry): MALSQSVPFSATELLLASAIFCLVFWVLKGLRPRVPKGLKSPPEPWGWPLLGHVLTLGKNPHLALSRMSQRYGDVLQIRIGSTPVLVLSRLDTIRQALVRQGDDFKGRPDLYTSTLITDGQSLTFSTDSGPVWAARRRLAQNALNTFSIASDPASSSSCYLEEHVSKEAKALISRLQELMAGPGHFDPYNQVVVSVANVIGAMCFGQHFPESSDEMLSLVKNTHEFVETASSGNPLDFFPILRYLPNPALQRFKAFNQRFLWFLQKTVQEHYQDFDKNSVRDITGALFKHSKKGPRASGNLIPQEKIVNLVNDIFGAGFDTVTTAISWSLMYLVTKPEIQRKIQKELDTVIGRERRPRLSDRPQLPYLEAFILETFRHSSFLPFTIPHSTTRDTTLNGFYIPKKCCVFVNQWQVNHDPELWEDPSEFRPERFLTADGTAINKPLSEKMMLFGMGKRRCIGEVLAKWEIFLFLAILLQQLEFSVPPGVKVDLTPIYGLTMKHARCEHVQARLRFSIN

CYP2D6 = CYP2D6 (Homo sapiens, UniProt P10635); assay: Inhibition of CYP2D6 in human liver microsomes assessed as reduction in dextromethorphan O-demethylase activity at 10 uM preincubated for 5 mins followed by NADPH addition and measured after 15 mins by LC-MS/MS analysis relative to control; format: ADME; conditions: probe dextromethorphan (O-demethylation)
Chain of CYP2D6 (P10635 whole entry): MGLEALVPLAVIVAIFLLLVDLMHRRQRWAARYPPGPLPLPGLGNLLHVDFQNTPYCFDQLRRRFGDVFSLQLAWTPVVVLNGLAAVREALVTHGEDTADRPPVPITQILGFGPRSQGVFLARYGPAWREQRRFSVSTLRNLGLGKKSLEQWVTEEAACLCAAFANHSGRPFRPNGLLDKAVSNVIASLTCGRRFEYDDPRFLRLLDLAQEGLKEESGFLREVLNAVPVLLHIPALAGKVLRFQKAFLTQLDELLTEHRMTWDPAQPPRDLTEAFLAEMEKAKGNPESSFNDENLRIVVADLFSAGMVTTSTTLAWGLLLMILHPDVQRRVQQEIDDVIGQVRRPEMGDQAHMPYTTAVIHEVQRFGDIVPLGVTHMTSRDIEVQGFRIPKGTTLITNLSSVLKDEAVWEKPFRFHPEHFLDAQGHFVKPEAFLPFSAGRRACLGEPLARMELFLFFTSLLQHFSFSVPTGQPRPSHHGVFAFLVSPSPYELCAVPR

CYP2C9 = CYP2C9 (Homo sapiens, UniProt P11712); assay: Inhibition of CYP2C9 in human liver microsomes assessed as reduction in tolbutamide 4-hydroxylase activity at 10 uM preincubated for 5 mins followed by NADPH addition and measured after 15 mins by LC-MS/MS analysis relative to control; format: ADME; conditions: probe tolbutamide (4-hydroxylation)
Chain of CYP2C9 (P11712 whole entry): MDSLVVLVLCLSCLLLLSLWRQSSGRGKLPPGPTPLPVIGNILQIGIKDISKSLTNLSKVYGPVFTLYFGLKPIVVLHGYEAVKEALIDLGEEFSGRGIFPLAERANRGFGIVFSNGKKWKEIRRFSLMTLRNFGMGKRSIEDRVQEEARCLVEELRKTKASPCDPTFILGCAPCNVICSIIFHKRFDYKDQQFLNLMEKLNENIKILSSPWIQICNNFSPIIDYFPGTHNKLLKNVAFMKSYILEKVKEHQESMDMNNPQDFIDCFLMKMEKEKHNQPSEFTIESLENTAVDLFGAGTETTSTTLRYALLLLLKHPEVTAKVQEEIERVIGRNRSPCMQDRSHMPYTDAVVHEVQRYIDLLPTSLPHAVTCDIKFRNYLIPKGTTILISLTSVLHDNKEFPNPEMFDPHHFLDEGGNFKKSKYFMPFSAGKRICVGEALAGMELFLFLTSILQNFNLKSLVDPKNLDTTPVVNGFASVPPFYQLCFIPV

CYP3A4 = CYP3A4 (Homo sapiens, UniProt P08684); assay: Inhibition of CYP3A4 in human liver microsomes assessed as reduction in midazolam 1-hydroxylase activity at 10 uM preincubated for 5 mins followed by NADPH addition and measured after 15 mins by LC-MS/MS analysis relative to control; format: ADME; conditions: probe midazolam (1-hydroxylation)
Chain of CYP3A4 (P08684 whole entry): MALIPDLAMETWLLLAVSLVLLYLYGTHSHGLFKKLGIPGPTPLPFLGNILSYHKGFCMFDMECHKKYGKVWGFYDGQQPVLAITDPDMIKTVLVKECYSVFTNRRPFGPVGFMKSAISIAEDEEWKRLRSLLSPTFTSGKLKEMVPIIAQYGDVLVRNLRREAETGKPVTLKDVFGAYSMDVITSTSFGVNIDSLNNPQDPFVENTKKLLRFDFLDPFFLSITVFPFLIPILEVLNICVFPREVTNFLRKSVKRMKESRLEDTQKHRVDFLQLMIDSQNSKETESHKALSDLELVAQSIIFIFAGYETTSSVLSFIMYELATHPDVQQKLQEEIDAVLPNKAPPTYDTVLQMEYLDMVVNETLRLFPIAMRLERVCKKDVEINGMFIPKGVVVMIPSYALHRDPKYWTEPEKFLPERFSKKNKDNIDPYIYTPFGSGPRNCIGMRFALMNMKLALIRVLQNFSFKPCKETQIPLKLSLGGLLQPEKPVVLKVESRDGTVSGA

CYP2C19 = CYP2C19 (Homo sapiens, UniProt P33261); assay: Inhibition of CYP2C19 in human liver microsomes assessed as reduction in S-mephenytoin 4-hydroxylase activity at 10 uM preincubated for 5 mins followed by NADPH addition and measured after 15 mins by LC-MS/MS analysis relative to control; format: ADME; conditions: probe S-mephenytoin (4-hydroxylation)
Chain of CYP2C19 (P33261 whole entry): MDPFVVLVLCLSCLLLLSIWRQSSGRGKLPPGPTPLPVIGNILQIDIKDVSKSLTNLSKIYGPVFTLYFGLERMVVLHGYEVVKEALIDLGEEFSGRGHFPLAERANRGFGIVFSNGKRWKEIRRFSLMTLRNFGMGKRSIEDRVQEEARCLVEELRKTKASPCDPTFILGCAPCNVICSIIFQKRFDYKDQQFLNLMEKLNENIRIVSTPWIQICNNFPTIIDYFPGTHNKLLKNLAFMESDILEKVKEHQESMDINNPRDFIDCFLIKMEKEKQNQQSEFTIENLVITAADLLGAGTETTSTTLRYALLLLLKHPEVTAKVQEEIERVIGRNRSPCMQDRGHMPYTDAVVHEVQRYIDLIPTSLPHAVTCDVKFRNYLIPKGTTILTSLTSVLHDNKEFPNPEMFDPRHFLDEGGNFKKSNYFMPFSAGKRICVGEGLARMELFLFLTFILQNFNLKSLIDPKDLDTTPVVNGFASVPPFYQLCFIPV

[7] = Metabolic stability in rat liver microsomes assessed as compound remaining at 1 uM after 30 mins in presence of NADPH regeneration system by LC-MS/MS analysis; format: ADME, Microsome; conditions: read-out: Stability
[8] = Metabolic stability in mouse liver microsomes assessed as compound remaining at 1 uM after 30 mins in presence of NADPH regeneration system by LC-MS/MS analysis; format: ADME, Microsome; conditions: read-out: Stability

OCCC/C(=C(\c1ccc(O)cc1)c1ccc(N2CCN(C3CCCC3)CC2)cc1)c1ccccc1
IC50 [1]: 115 nM

CC(C)N1CCN(c2ccc(/C(=C(/CCCO)c3ccccc3)c3ccc(NC(=N)N)cc3)cc2)CC1
IC50 [1]: > 10000 nM

CN1CCN(c2ccc(/C(=C(/CCCO)c3ccccc3)c3ccc(O)cc3)cc2)CC1
IC50 [2]: > 10000 nM
IC50 [3]: 1980 nM
IC50 (Estrogen receptor): 1700 nM

CN1CCN(c2ccc(/C(=C(/CCCO)c3ccccc3)c3ccc(OC(=O)C(C)(C)C)cc3)cc2)CC1
IC50 [1]: 2700 nM

CN1CCN(c2ccc(/C(=C(/CCCO)c3ccccc3)c3ccc(Br)cc3)cc2)CC1
IC50 [2]: > 10000 nM
IC50 (Estrogen receptor): > 10000 nM

CN1CCN(c2ccc(/C(=C(/CCCO)c3ccccc3)c3ccc(N)cc3)cc2)CC1
IC50 [1]: 140 nM

OCCC/C(=C(\c1ccc(O)cc1)c1ccc(N2CCNCC2)cc1)c1ccccc1
IC50 [2]: > 10000 nM
IC50 [3]: 4540 nM
IC50 (Estrogen receptor): 2500 nM

OCCC/C(=C(\c1ccc(O)cc1)c1ccc(N2CCN(C3CCCCC3)CC2)cc1)c1ccccc1
IC50 [2]: 9700 nM
IC50 [1]: 99 nM
IC50 (Estrogen receptor): 2120 nM

CC(C)N1CCN(c2ccc(/C(=C(/CCCO)c3ccccc3)c3ccc(Br)cc3)cc2)CC1.Cl.Cl
IC50 [2]: > 10000 nM
remaining at 0.5 h, 1 µM [4]: 64.4%
remaining at 0.5 h, 1 µM [5]: > 100%
Papp at 5 h, 10 µM [6]: 0.37 ×10⁻⁶ cm/s
inhibition at 0.25 h, 10 µM (CYP1A2): 6.5%
inhibition at 0.25 h, 10 µM (CYP2D6): 28.5%
inhibition at 0.25 h, 10 µM (CYP2C9): 3.1%
inhibition at 0.25 h, 10 µM (CYP3A4): 35.5%
inhibition at 0.25 h, 10 µM (CYP2C19): 13.7%
remaining at 0.5 h, 1 µM [7]: 74.2%
remaining at 0.5 h, 1 µM [8]: 48.5%
IC50 (Estrogen receptor): > 10000 nM

CN1CCN(c2ccc(/C(=C(/CCCOC(=O)C(C)(C)C)c3ccccc3)c3ccc(O)cc3)cc2)CC1
IC50 [1]: > 10000 nM

N=C(N)N1CCN(c2ccc(/C(=C(/CCCO)c3ccccc3)c3ccc(O)cc3)cc2)CC1
IC50 [1]: 511 nM

CC(C)N1CCN(c2ccc(/C(=C(/CCCO)c3ccccc3)c3cccc(Br)c3)cc2)CC1
IC50 [2]: > 10000 nM
remaining at 0.5 h, 1 µM [4]: 68.4%
remaining at 0.5 h, 1 µM [5]: 53.6%
inhibition at 0.25 h, 10 µM (CYP1A2): 2.5%
inhibition at 0.25 h, 10 µM (CYP2D6): 70.4%
IC50 [3]: 1440 nM
inhibition at 0.25 h, 10 µM (CYP2C9): 27%
inhibition at 0.25 h, 10 µM (CYP3A4): 60.1%
inhibition at 0.25 h, 10 µM (CYP2C19): 56.1%
remaining at 0.5 h, 1 µM [7]: 53.7%
remaining at 0.5 h, 1 µM [8]: 31%
IC50 (Estrogen receptor): > 10000 nM

CN1CCN(c2ccc(/C(=C(/CCCOC(=O)C(C)(C)C)c3ccccc3)c3ccc(OC(=O)C(C)(C)C)cc3)cc2)CC1
IC50 [1]: > 10000 nM
